Laboratory results published in patent US5728684A, “Determination of prodrugs metabolizable by the liver and therapeutic use thereof” (priority 1994, dated 1998).
Entries after “also recorded” stand apart in the source; their conditions may differ.

Tests used:
[1] = tested on: Xanthine oxidase; experiment: Conversion of IPdR to IUdR by xanthine oxidase; assay type: biochemical; conditions: isolated from cow milk
From the text: (§1) In order to determine which enzyme is responsible for the catalysts of this IPdR oxidation, a series of known oxido-reductases which have similar capability to oxidize a carbon atom with an adjacent amino group into a carbonyl functionality were explored for their ability to catalyze IPdR oxidation. […] A mixed function oxidase system prepared from the microsome of rat liver a broad spectrum of substrates and is NADPH dependent. […] Alcohol dehydrogenase (which can be obtained from Sigma) and alcohol oxidase (which can be obtained from Sigma) both reside in the soluble fraction of liver cell extracts, but the conversion of IPdR to […] was not detected with purified preparation of either enzyme under the same conditions that they converted their natural substrates effectively. […]

[2] = tested on: HSV-2; conditions: Lewandowski et al. 1989; cited from earlier work
[3] = tested on: thymidine phosphorylase; conditions: cited from earlier work
[4] = tested on: liver and tumor tissue; experiment: Thymidine replacement in liver and tumor tissue of athymic nude mice having metastatic tumors; assay type: in vivo; conditions: 100, 250, 500 mg/kg/d (FIG. 7)
Protocol: Mice were administered daily dosages of 0, 100, 250 and 500 mg/kg/d to determine thymidine replacement in liver and tumor tissue. The results presented in FIG. 7 are presented as mean percent thymidine replacement ± one standard error of the mean. n≥3 (control tumors n=2).

[5] = tested on: mice; conditions: oral, at the dosage employed; cited from earlier work
[6] = tested on: bone marrow, gut and liver tissue; experiment: Thymidine replacement in tissues of athymic nude mice; assay type: in vivo
Protocol: Mice were administered daily oral dosages of 0, 100, 250 and 500 mg/kg. Percent dThd replacement as indicative of IPdR incorporation into bone marrow, gut and liver tissue was assayed according to known methods. […] Results presented in FIG. 6 are mean percent thymidine replacement ± one standard error of the mean. N is greater or equal to 3 for each dose.

[7] = tested on: aldehyde oxidase; experiment: Substrate specificity of the conversion of RPdR to RUdR; assay type: in vitro ADME, rat; conditions: substrate 180 μM; 2 to 4 separate experiments; in nmol/mg/min
Protocol: Rat hepatic tissue was washed with ice-cold 1.15% KCl and blotted dry. The tissue was then homogenized with a tissue homogenizer, in a volume of 1.15% KCl that was 3 times the tissue weight, to form a 25% (w/v) homogenate. The homogenate was then centrifuged at 10,000 g for 10 minutes at 4° C. The resulting supernatant was filtered through Miracloth (similar to cheese cloth) then dialyzed overnight against 50 mM Tris-HCl buffer pH 7.5 and stored at -80° C. before use. Rat hepatocytes were obtained by a perfusion technique then the cells were extracted with 10 mM phosphate buffer, pH 7.5, containing 1M KCl and dialyzed for 4 hours against 50 mM Tris-HCl buffer pH 7.5.
For the standard assay condition, the reaction mixture contained 50 mM Tris-HCl, pH 7.5, 1 mM EDTA, 180 μM of IPdR (or its analogs) and approximately 0.01 mg protein of 10,000 g supernatant of tissue homogenate in a final volume of 500 μl and the incubation was at 37° C. for 10 minutes unless specified otherwise. 300 μl of reaction mixture was removed at the end of incubation and mixed with 630 μl acetonitrile then agitated. The precipitated protein were removed by centrifugation and the supernatant was lyophilized to dryness. The samples were reconstituted to the original aliquot volume with the HPLC mobile phase buffer and analyzed on a Alltech RP-18 column. IPdR, IUdR and IU were detected at a UV absorption wavelength of 230 nm, and IPdR was also detected at a UV absorption wavelength of 335 nm. The mobile phase was 10% acetonitrile/90%mM ammonium acetate, pH 6.8 and the flow rate was 1 ml/minute. Standard curves of IPdR and IUdR were established from the integration value of known concentrations.
Several 2-pyrimidinone deoxyribose analogs were examined for the conversion to their deoxyuridine counterparts. […] Nevertheless the relative Vmax for IPdR in the reaction at pH 7.5 and pH 9.5 is the same. […] The synthetic substrates for aldehyde oxidase appear to be better than its natural substrates, N^1 -methylnicotinamide and acetaldehyde, as judged by the potency of inhibition of N^1 -methylnicotinamide and acetaldehyde to the IPdR oxidation reaction (Table IV). The rate of reactivity of the liver enzyme with different IPdR analogs follows the order EPdR, IP, IPdR, 5-bromo-2-pyrimidinone deoxyribose (BPdR) and 5-methyl-2-pyrimidinone deoxyribose (MPdR) or 5-ethyl-2-pyrimidinone deoxyribose (EtPdR) (Table V). Electronegative substituents in the 5-position seemed to increase the substrate activity in this oxidation reaction.
Substrate specificity of the conversion of […]

[8] = tested on: Sarcosine oxidase; experiment: IPdR oxidation by sarcosine oxidase; assay type: biochemical
From the text: as §1

[9] = tested on: uninfected cells; conditions: Lewandowski et al. 1989; cited from earlier work

In the case of `O=c1ncc(I)cn1[C@H]1C[C@H](O)[C@@H](CO)O1` [IPdR, 1-(2-deoxy-β-D-ribofuranosyl)-5-(iodo)-2-pyrimidinone], the “conversion of IPdR to IUdR by xanthine oxidase” value [1] is given as “failed to convert IPdR to IUdR”, the “activity against HSV-2 in mice” value [2] is given as “potent activity” and the “substrate for thymidine phosphorylase” value [3] is given as “not substrates for thymidine phosphorylase”. For the same molecule, the “percent thymidine replacement in tumor” value [4] was “increasing tumor incorporation; also recorded: increasing percent replacement”, the “percent incorporation in liver” value ([4]; normal liver) was “negligible; also recorded: very small percent incorporation” and the toxicity to mice [5] was “not toxic”. For the same molecule, the “incorporation of IUdR into liver” value ([6]; oral, 100, 250, 500 mg/kg daily) was “No incorporation of IUdR into liver was found”, the “percent thymidine replacement in bone marrow and gut” value ([6]; oral, 100, 250, 500 mg/kg daily (FIG. 6)) was “relatively low; also recorded: relatively small amounts” and the “Conversion of RPdR to RUdR” value [7] was 11 ± 2. For the same molecule, the “IPdR oxidase activity of sarcosine oxidase” value [8] was “no IPdR oxidase activity” and the “toxicity to uninfected cells” value [9] was “not toxic”.
